This is an account of results in patent publication US10213451B2, “Methods and compounds for modulating the secretion or expression of adhesion proteins or angiopoietins of cells” (PACIFIC ARROW LIMITED, priority 2004, dated 2019).

Each structure is given as a SMILES string. ≈ marks a conversion by molar mass, not a printed value.

In one experiment the test system is ES2(ovarian) cells. The experiment in a line: MTT assay ES2. The format is cell-based, human. The conditions noted are these: ES2 cells. A general note: Tetrazolium dyes change colour on reduction, which living cells bring about.
In experiment [1] the test system is Fibronectin secretion from bladder carcinoma cells (HTB-9). The experiment can be described thus: Fibronectin secretion (Western blot), HTB-9 cells. The format is cell-based, human. To be noted: 10 ug/ml; for inhibition at 10 µg/mL: Homo sapiens. (In general: In western blotting, separated proteins are transferred to a membrane and probed.)
A further experiment concerns (Prostate) DU145. The experiment in a line: MTT assay DU145. The format is cell-based, human. How it is done: (§1) Cells. Human cancer cell lines were obtained from American Type Culture Collection: HTB-9 (bladder), HeLa-S3 (cervix), DU145 (prostate), H460 (lung), MCF-7 (breast), K562 (leukocytes), HCT116 (colon), HepG2 (liver), U2OS (bone), T98G (brain), SK-MEL-5 (Skin) and OVCAR-3 (ovary). The cells were grown in following culture media: HeLa-53, DU145, MCF-7, Hep-G2 and T98G are in MEN (Earle's salts); HTB-9, H460, K562 and OVCAR-3 in RPMI-1640; HCT-116 and U2OS in McCoy-5A. They are supplemented with 10% fetal calf serum, glutamine and antibiotics, and incubated in an incubator with 5% CO2 humidified at 37° C.
(§2) MTT Assay. The procedure for MTT assay followed the method described by Carmichael et al. (1987) with modifications. […] The formazan (product of the reduction of tetrazolium by viable cells) formed and was dissolved with DMSO and the O.D. at 490 nm, and was measured by an ELISA reader. The MTT level of the cells before drug-treatment was also measured (T0). The % cell-growth (% G) is calculated as: % G=(TD−T0/TC−T0)×100(1), where TC or TD represents O.D. readings of control or drug-treated cells. When T0>TD, then the cytotoxicity (LC) expressed as % of the control is calculated as: % LC=(TD−T0/T0)×100(2).

For experiment [2], the system named is Fibronectin secretion from brain glioblastoma T98G cells. The experiment can be described thus: Fibronectin secretion (Western blot), T98G cells. The format is cell-based, human.
Experiment [3] concerns Fibronectin secretion from ES2 cells. The experiment can be described thus: Fibronectin secretion (Western blot), ES2 cells. The class given is cell-based, human. To be noted: 10 ug/ml; for inhibition at 10 µg/mL: Homo sapiens, ES-2, ES2 cells. How it is done:
Inhibition of Fibronectin secretion is physiological and the determination of its quantity is based on the following criteria: • 1. Fibronectin is secreted from viable cells. Only cell with over 85% viable cells after drug-treatment are employed in these experiments. The viable cells were determined by MTT assay. • 2. For comparison, the immuno-band intensity from each samples are normalized with cell mass. The cell mass was determined by the MTT assay and is assigned as a MTT unit for each cell sample.
Cells: ES2 cells were grew in T-25 flask with RPMI 1640 medium over night before drug-treatment. Drug-treatment: cells cultures were replaced with fresh RPMI medium with Xanifolia-Y (10 ug/ml final concentration) or DMSO (as control) at 0 hour. At 1, 2, 4, 8 and 24 hour, aliquot of culture medium was taken out for Fibronectin determination. Fibronectin was determined by Western blot with monoclonal antibody (SIGMA) specific to human Fibronectin only.
Drug-treatment: cells cultures were replaced with fresh RPMI medium containing Xanifolia-Y (10 ug/ml final concentration) or DMSO (as control) at 0 hour. At 4 hours (A) or 8 hour (B), culture medium was replaced with fresh culture medium without drug. At 2, 4, 8 and 24 hour, aliquot of culture medium was taken out for Fibronectin determination. Fibronectin (FN) was determined by Western blot with monoclonal antibody (SIGMA) specific only to human Fibronectin.
Drug-treatment: cells cultures were replaced with fresh RPMI medium containing Xanifolia-Y (10 ug/ml final concentration) or DMSO (as control) at 0 hour. At 2, and 18 hour, aliquot of culture medium was taken out for Fibronectin determination (Western blot method). Cell viability at 18 hours was determined by MTT assay. Cultures were replaced with RPMI medium with MTT and incubated for an hour. The formation of formazan was dissolved in DMSO and OD at 570 nm was measured.
Cells and Drug-treatment: same as previous experiments. After 7 or 24 hours, aliquot of culture medium was taken out for Fibronectin determination (Western blot method). Cell viability at 24 hours was determined by MTT assay.
Cells: ES2 cells were grew in RPMI 1640 medium over night before drug-treatment. Drug-treatment: cells cultures were replaced with fresh RPMI medium containing DMSO (as control) [D]; Xanifolia-Y (10 ug/ml) [Y]; or Paclitaxel 10 or 50 ng/ml [T10, ro T50]. After 24 hours, aliquot of culture medium was taken out for Fibronectin determination (Western blot method). Cell viability at 24 hours was determined by MTT assay.
The amount of Fibronectin secreted by cells into medium was determined by Western blot assay. The amount of Fibronectin secreted per cells basis was determined by dividing the Western-band intensity with the MTT unit.
Western Blot: Spent culture medium (0.6 ml) was mixed with SDS sample buffer (0.2 ml), boiled for 3 minutes before loading to SDS gel. Samples (60 ul/lane) were applied to a 6% SDS gel and electrophoresis was conducted with 100 volts for 2 hours. Protein was transferred to a nitrocellulose paper electrophoretically (30 min at 100 volts). The Western blot was incubated with the first antibody (mouse anti-FN, specific to human FN, SIGMA F0916) and second antibody (Anti-mouse IgG AP conjugated, Promega S3721). The immunobands were developed with BCIP/NBT color development system (Promega S3771).

A further experiment relates to (Breast)MCF7. The experiment can be described thus: MTT assay MCF7. The class given is cell-based, human. The procedure: as §1, §2
The subject of a further experiment is (Skin) SK-MELS. The experiment can be described thus: MTT assay SK-MEL-5. The class given is cell-based, human. The procedure: as §1, §2
In another experiment the test system is (Liver) HepG2. The experiment can be described thus: MTT assay HepG2. The class given is cell-based, human. How it is done: as §1, §2
The test system of experiment [4] is Fibronectin secretion from liver HepG2 cells. The experiment in a line: Fibronectin secretion (Western blot), HepG2 cells. The class given is cell-based, human. The conditions noted are these: 10 ug/ml; for inhibition at 10 µg/mL: Homo sapiens, HepG2, HepG2 cells.
Experiment [5] has as its system Fibronectin secretion from skin SK-Mel-5 cells. The experiment in a line: Fibronectin secretion (Western blot), SK-MEL-5 cells. The class given is cell-based, human.
Experiment [6] relates to (bladder)TB9 cells / HTB-9. The experiment in a line: MTT assay bladder cells. The format is cell-based, human. To be noted: (bladder)TB9 cells. The procedure: as §1
(§3) MTT Assay. The procedure for MTT assay followed the method described by Carmichael et al. (1987) with modifications. The cells were seeded into a 96-well plate at concentration of 10,000/well for HTB-9, HeLa, H460, HCT116, T98G and OVCAR-3), 15,000/well for DU145, MCF-7, HepG2 and U2OS), and 40,000/well for K562 for 24 hours before drug-treatment. The cells were then exposed to the drugs for 48 hours (72 hours for HepG2 and U2OS, and 96 hours for MCF-7). After the drug-treatment, MTT (0.5 mg/mL) was added to cultures and incubated for an hour. The formazan (product of the reduction of tetrazolium by viable cells) formed and was dissolved with DMSO and the O.D. at 490 nm, and was measured by an ELISA reader. The MTT level of the cells before drug-treatment was also measured (T0). The % cell-growth (% G) is calculated as: % G=(TD−T0/TC−T0)×100(1), where TC or TD represents O.D. readings of control or drug-treated cells. When T0>TD, then the cytotoxicity (LC) expressed as % of the control is calculated as: % LC=(TD−T0/T0)×100(2).

In experiment [7] the test system is Fibronectin secretion from lung carcinoma cells (H460). The experiment can be described thus: Fibronectin secretion (Western blot), H460 cells. The class given is cell-based, human.
Another experiment concerns ovarian cancer cells. The experiment can be described thus: MTT assay, growth of ovarian cancer cells (FIG. 3A, 3B). To be noted: Homo sapiens, read-out: IC50, inhibiting growth of ovarian cancer cells. The format is cell-based. How it is done:
as §1, §2

For another experiment, the system named is tumor growth. The experiment can be described thus: MTT anticancer activity of Y, X and hydrolysis products (FIG. 4C). The class given is cell-based. To be noted: FIG. 4C; read-out: IC50, inhibits tumor growth / anticancer activity. How it is done: as §3
(A) Alkaline Hydrolysis of Xanifolia-Y: 20 mg of Xanifolia-Y was dissolved in 0.5 mL of 1M NaOH. The solution was incubated in an 80° C. water bath for 4 hours. It was cooled to room temperature before being neutralized with 0.5 mL 1 N HCl (adjusted pH to about 3). The mixture was extracted with 2 mL 1-butanol 3 times. The butanol fractions were collected and lyophilized. The hydrolyzed saponin was further purified with HPLC in a C-18 column eluted with 25% acetonitrile.
(B) Acid Hydrolysis of Xanifolia-Y: 15 mg Xanifolia-Y was dissolved in 1 mL of Methanol. 1 mL of 2N HCl was then added. The mixture was refluxed in an 80° C. water bath for 5 hours. The solution was then neutralized by adding 2 mL of 1N NaOH (to a final pH 3-4). The aglycone was then extracted with ethylacetate 3 mL×3. The extracts were collected and pooled. Further isolation of aglycone (sugar-removed Xanifolia-Y) was achieved by HPLC with isocratic elution of 80% acetonitrile.

As usually defined, the inhibition is the share of the control response that was lost under treatment.

For the compound `CC=C(C)C(=O)OC1C(OC(=O)C(C)=CC)C23C(O)CC4(C)C5(C)CCC6C(C)(C)C(OC7OC(C(=O)O)C(O)C(OC8OC(CO)C(O)C(O)C8OC8OC(C)C(O)C(O)C8OC8OC(C)C(O)C(O)C8O)C7OC7OC(CO)C(O)C(O)C7O)CCC6(C)C5CCC4(OC2O)C3CC1(C)C` (centres unmarked) [Mb5], the IC50 was 6.5 µg/mL (≈ 4.44 µM) in the experiment on ES2(ovarian) cells; 7.6 µg/mL (≈ 5.19 µM) with (Prostate) DU145; 11 µg/mL (≈ 7.52 µM) with (Breast)MCF7; 25 µg/mL (≈ 17.1 µM) in the experiment on (Skin) SK-MELS; 6.5 µg/mL (≈ 4.44 µM) with (Liver) HepG2; 6.5 µg/mL (≈ 4.44 µM) in [6]. Further, the “% inhibition of Fibronectin secretion” value in experiment [1] is reported as 28%; in [2] (10 ug/ml), 33%; in [3] (ES2 cells), 35%; in experiment [4] (HepG2 cells) it was 35%; in [5] (10 ug/ml), 15%; in [7] (H460 cells, 10 ug/ml), 25%.

On to `C/C=C(/C)C(=O)O[C@H]1[C@H](OC(C)=O)C(C)(C)CC2C3=CCC4[C@@]5(C)CC[C@H](O[C@@H]6OC(C(=O)OCCCC)[C@@H](O)C(O[C@@H]7O[C@@H](CO)C(O)C7O)C6O[C@@H]6OC(CO)[C@H](O)C(O)C6O)C(C)(C)C5CC[C@@]4(C)[C@]3(C)C[C@@H](O)[C@]21CO` (stereo partly drawn) [X, 3-O-{[β-D-galactopyranosyl (1→2)]-[α-L-arabinofuranosyl (1→3)]-β-D-glucuronopyranosidebutyl ester}-21-O-acetyl-22-O-angeloyl-3β,16α,21β,22α,28-pentahydroxyolean-12-ene], for which the inhibition at 10 µg/mL in experiment [1] was 38%; in experiment [3], 39%; in experiment [4] it was 42%. Further, the inhibition at 20 µg/mL was determined as 52% in experiment [2] (Homo sapiens, T98G, 20 ug/ml); 15% in [5] (Homo sapiens, 20 ug/ml); 37% in experiment [7] (Homo sapiens, NCI-H460, H460 cells, 20 ug/ml). The IC50 in the experiment with ovarian cancer cells turned out to be 30 µg/mL (≈ 26.3 µM); in the experiment with tumor growth it was 6 µg/mL (≈ 5.26 µM).

On to `C/C=C(/C)C(=O)O[C@@H]1C(O)[C@H](O[C@H]2[C@H](OC(C)=O)[C@@]3(CO)C(CC2(C)C)C2=CCC4[C@@]5(C)CC[C@H](O[C@@H]6OC(C(=O)O)[C@@H](O)[C@@H](O[C@@H]7O[C@@H](CO)[C@@H](O)C7O)C6O[C@@H]6OC(CO)[C@H](O)[C@@H](O)C6O)C(C)(C)C5CC[C@@]4(C)[C@]2(C)C[C@H]3O)OC(C)[C@@H]1OC(=O)/C(C)=C\C` (stereo partly drawn) [Xanifolia Y1, 3-O-[β-D-galactopyranosyl (1→2)]-α-L-arabinofuranosyl (1→3)-β-D-glucuronopyranosyl-21-O-(3,4-diangeloyl)-α-L-rhamnophyranosyl-22-O-acetyl-3β,16α, 21β, 22α, 28-pentahydroxyolean-12-ene], for which the inhibition at 10 µg/mL came out at 50% in experiment [1]; 40% in experiment [2] (Homo sapiens, 10 ug/ml); 41% in experiment [3]; 33% in [4]; 10% in experiment [5] (Homo sapiens, 10 ug/ml); 13% in [7] (Homo sapiens, NCI-H460, H460 cells, 10 ug/ml).
